Here are results for four molecules from publication PMC10044120, “Potent and selective covalent inhibition of the papain-like protease from SARS-CoV-2” (Nature Communications, 2023).

The test system of data set [1] is SARS-CoV-2 isolate USA-WA1/2020. The data set can be described thus: microbe, parasite or virus in culture. The following applies: for inhibition at 2.08 µM: Severe acute respiratory syndrome coronavirus 2, Vero C1008, read-out: cytopathic effect, % cell viability, [inhibitor] 2.08 uM. A general note: Cytopathic effects are the visible damage that an infection or toxin causes in cultured cells.

Data set [2] has as its target T1, PLpro from SARS-CoV-2 (Severe acute respiratory syndrome coronavirus 2, UniProt P0DTD1). The data set can be described thus: biochemical. It is filed as biochemical. To be noted: for remaining activity at 0.06 µM: inhibitor 0.06 uM; for remaining activity at 0.2 µM: inhibitor 0.20 uM; for IC50: after 30-min incubation.
In data set [3] the test system is SARS-CoV-2 isolate USA-WA1/2020. To be noted: for inhibition: read-out: cytopathic effect, % cell viability, duplicate wells.
The target of the next data set is PLpro (Severe acute respiratory syndrome coronavirus 2, UniProt P0DTD1). Put plainly: Intact protein ESI-MS to assess covalent adduct formation. More on the design: unit not given here. It is filed as binding, SARS-CoV-2.
A further data set can be described thus: in vitro. The following applies: African green monkey; for viability at 48 h, 2.08 µM / viability at 48 h, 8.33 µM / viability at 48 h, 16.67 µM / viability at 48 h, 33.33 µM: cytotoxicity, %cell viability.
The test system of the next data set is Vero E6 cells. To be noted: African green monkey, 48 h.
In data set [4] the target is T1, PLpro from SARS-CoV-2. The data set can be described thus: biochemical. More on the design: mean (kobs plot, Supplementary Figure 6 II): unit: min^-1. To be noted: for Time dep. (time-dependent inhibition): fluorogenic peptide assay, varied preincubation time. It is filed as biochemical.
Data set [5] in a line: Metabolic stability in mouse liver microsomes. To be noted: CD-1, mouse.
The nature of data set [6]: Metabolic stability in mouse liver S9 fraction. To be noted: CD-1, mouse.
A short description of data set [7]: Metabolic stability in rat liver microsomes. To be noted: Sprague-Dawley. A general note: Liver microsomes are a subcellular fraction often used to study metabolism.
Data set [8] can be described thus: Metabolic stability in rat liver S9 fraction. The following applies: Sprague-Dawley.
The mark [9] stands for this setting: 1 h, read-out: PLpro activity after preincubation, inhibitor 0.2 uM, preincubation 60 min.

Like-named read-outs stand apart in the source and are kept apart here.

Turning to `COC(=O)/C=C/C(=O)NNC(=O)CCc1ccc(NC(C)=O)cc1C(=O)N[C@H](C)c1cccc2ccccc12` [Compound 8, methyl-(R,E)-4-(2-(3-(4-acetamido-2-((1-(naphthalen-1-yl)ethyl)carbamoyl)phenyl)propanoyl)hydrazineyl)-4-oxobut-2-enoate], the inhibition at 2.08 µM in data set [1] (duplicate wells) was determined as 1.22%. Also, in data set [1] (Severe acute respiratory syndrome coronavirus 2, Vero C1008, read-out: cytopathic effect, % cell viability, [inhibitor] 8.33 uM, duplicate wells), the inhibition at 8.33 µM was 4.63%. The remaining activity at 0.06 µM on PLpro from SARS-CoV-2 [2] (0.5 h) worked out at 89.5%. Moreover, the remaining activity at 0.2 µM at PLpro from SARS-CoV-2 [2] (0.5 h) was 57.8%; at PLpro from SARS-CoV-2 [4] (setting [9]), 12.6%. The 50% inhibitory concentration (IC50) (usually the concentration needed to halve the response being measured) against PLpro from SARS-CoV-2 [2] ([…]) came to 230 nM. The inhibition in data set [3] ([inhibitor] 2.08 uM, 2.08 µM) was 0.9%; in [3] ([inhibitor] 8.33 uM, 8.33 µM) it was 2.82%. The molecule also registered a Measured adduct mass on PLpro of 531. In addition, the viability – broadly, a read-out of living cells in per cent, often relative to untreated cells – at 48 h, 2.08 µM in “in vitro” was 83.7%. The molecule further showed a viability at 48 h, 8.33 µM in “in vitro” of 87.2%. The same molecule registered a viability at 48 h, 16.67 µM in the data set “in vitro” of 82.6%. The molecule also displayed a viability at 48 h, 33.33 µM in the data set “in vitro” of 75.6%. Also, the “cytotoxicity, %cell viability” value in the data set with Vero E6 cells (2.08 µM) is reported as 78.830%; in the data set on Vero E6 cells (8.33 µM), 82.620%; in the data set with Vero E6 cells (16.67 µM), 76.260%; in the data set with Vero E6 cells (33.33 µM) it was 75.370%. Also, the kinact/KI – broadly, the second-order rate constant of inactivation – at PLpro from SARS-CoV-2 [4] was 9000 M⁻¹ s⁻¹. In addition, the remaining activity at 0.1 µM was 79.5% at PLpro from SARS-CoV-2 [4] (5 min, read-out: PLpro activity after preincubation, inhibitor 0.1 uM, preincubation 5 min); 71.5% on PLpro from SARS-CoV-2 [4] (10 min, read-out: PLpro activity after preincubation, inhibitor 0.1 uM, preincubation 10 min); 66.2% at PLpro from SARS-CoV-2 [4] (0.5 h, read-out: PLpro activity after preincubation, inhibitor 0.1 uM, preincubation 30 min); 64.4% at PLpro from SARS-CoV-2 [4] (1 h, read-out: PLpro activity after preincubation, inhibitor 0.1 uM, preincubation 60 min); 66.3% on PLpro from SARS-CoV-2 [4] ([…], read-out: PLpro activity after preincubation, inhibitor 0.1 uM, preincubation 15 min); 72.5% at PLpro from SARS-CoV-2 [4] ([…], read-out: PLpro activity after preincubation, inhibitor 0.1 uM, preincubation 45 min). Also, the remaining activity at 0.1 µM at PLpro from SARS-CoV-2 [4] ([…], read-out: PLpro activity after preincubation, inhibitor 0.1 uM, preincubation 90 min) was determined as 44.6%. Also, at PLpro from SARS-CoV-2 [4], the “Time dep. (time-dependent inhibition)” value is reported as “Yes”. The “mean (kobs plot, Supplementary Figure 6 II)” value was determined as 0.0091 at PLpro from SARS-CoV-2 [4] (inhibitor 0.10 uM) and 0.0652 at PLpro from SARS-CoV-2 [4] (inhibitor 0.20 uM).

Take `CC(=O)Nc1ccc(CCC(=O)NNC(=O)CCl)c(C(=O)N[C@H](C)c2cccc3ccccc23)c1` [Compound 10, (R)-5-acetamido-2-(3-(2-(2-chloroacetyl)hydrazineyl)-3-oxopropyl)-N-(1-(naphthalen-1-yl)ethyl)benzamide]: in [1] (duplicate wells), the inhibition at 2.08 µM stood at 2.2%. Moreover, on PLpro from SARS-CoV-2 [2] (0.5 h, inhibitor 0.02 uM), the remaining activity at 0.02 µM was determined as 90.3%. Also, at PLpro from SARS-CoV-2 [2] (0.5 h), the remaining activity at 0.06 µM was 102%. In addition, the remaining activity at 2.01 µM on PLpro from SARS-CoV-2 [2] (0.5 h, inhibitor 2.01 uM) came out at 80.3%. Also, the remaining activity at 6.34 µM at PLpro from SARS-CoV-2 [2] (0.5 h, inhibitor 6.34 uM) was 37.2%. This molecule came in with an IC50 at PLpro from SARS-CoV-2 [2] ([…]) of 4400 nM. In addition, the inhibition in data set [3] ([inhibitor] 2.08 uM, 2.08 µM) came out at 1.32%. At PLpro, this molecule yielded a Measured adduct mass of 460. The viability at 48 h, 2.08 µM in the data set “in vitro” was found to be 92.2%. In “in vitro”, this molecule registered a viability at 48 h, 8.33 µM of 84.4%. In “in vitro”, this molecule gave a viability at 48 h, 16.67 µM of 81.5%. The molecule also registered a viability at 48 h, 33.33 µM in “in vitro” of 73.4%. Further, the “cytotoxicity, %cell viability” value with Vero E6 cells (2.08 µM) was found to be 80.200%; in the data set on Vero E6 cells (8.33 µM) it was 79.780%; in the data set with Vero E6 cells (16.67 µM), 73.170%; in the data set with Vero E6 cells (33.33 µM) it was 66.030%.

Take `C#CC(=O)NNC(=O)CCc1ccccc1C(=O)N[C@H](C)c1cccc2ccccc12` [Compound 12, (R)-N-(1-(naphthalen-1-yl)ethyl)-2-(3-oxo-3-(2-propioloylhydrazineyl)propyl)benzamide]: the inhibition at […] in data set [1] (Severe acute respiratory syndrome coronavirus 2, Vero C1008, read-out: cytopathic effect, % cell viability) is 6.23%. Further, at PLpro from SARS-CoV-2 [2] (0.5 h), the remaining activity at 0.06 µM was 75.9%. Besides, the remaining activity at 0.2 µM on PLpro from SARS-CoV-2 [2] (0.5 h) amounted to 14.8%; on PLpro from SARS-CoV-2 [4] (5 min, read-out: PLpro activity after preincubation, inhibitor 0.2 uM, preincubation 5 min) it was 80%; at PLpro from SARS-CoV-2 [4] (10 min, read-out: PLpro activity after preincubation, inhibitor 0.2 uM, preincubation 10 min), 69.8%; on PLpro from SARS-CoV-2 [4] (0.5 h, read-out: PLpro activity after preincubation, inhibitor 0.2 uM, preincubation 30 min) it was 87.5%; at PLpro from SARS-CoV-2 [4] (setting [9]), 83.5%; at PLpro from SARS-CoV-2 [4] ([…], read-out: PLpro activity after preincubation, inhibitor 0.2 uM, preincubation 15 min), 82%. The remaining activity at 0.2 µM turned out to be 75.3% at PLpro from SARS-CoV-2 [4] ([…], read-out: PLpro activity after preincubation, inhibitor 0.2 uM, preincubation 45 min) and 60% at PLpro from SARS-CoV-2 [4] ([…], read-out: PLpro activity after preincubation, inhibitor 0.2 uM, preincubation 90 min). Also, on PLpro from SARS-CoV-2 [2] (0.5 h, inhibitor 200.00 uM), the remaining activity at 200 µM amounted to 2.39%. The IC50 against PLpro from SARS-CoV-2 [2] (purified PLpro, Z-RLRGG-AMC substrate) is 98 nM. Further, the “EC50 (cytopathic effect)” value in [3] (SARS-CoV-2-infected Vero E6 cells, 48 h) is reported as “No CPE”. For the same molecule, the CC50 at 48 h in “in vitro” (CC50) is 1000 to 5000 nM. The viability at 48 h, 8.33 µM in “in vitro” was found to be 0.83%. For the same molecule, the viability at 48 h, 16.67 µM in “in vitro” was found to be 0.57%. The same molecule gave a viability at 48 h, 33.33 µM in “in vitro” of 1.02%. In addition, the “cytotoxicity, %cell viability” value in the data set with Vero E6 cells (16.67 µM) is listed as 0.55%; with Vero E6 cells (33.33 µM), 0.51%. Moreover, the kinact/KI on PLpro from SARS-CoV-2 [4] is 4100 M⁻¹ s⁻¹. Further, the remaining activity at 0.5 µM at PLpro from SARS-CoV-2 [4] (5 min, read-out: PLpro activity after preincubation, inhibitor 0.5 uM, preincubation 5 min) was determined as 68.1%; on PLpro from SARS-CoV-2 [4] (10 min, read-out: PLpro activity after preincubation, inhibitor 0.5 uM, preincubation 10 min) it was 40.2%; at PLpro from SARS-CoV-2 [4] (0.5 h, read-out: PLpro activity after preincubation, inhibitor 0.5 uM, preincubation 30 min) it was 14.4%; on PLpro from SARS-CoV-2 [4] ([…], read-out: PLpro activity after preincubation, inhibitor 0.5 uM, preincubation 15 min), 34.6%; at PLpro from SARS-CoV-2 [4] ([…], read-out: PLpro activity after preincubation, inhibitor 0.5 uM, preincubation 45 min), 1.63%. Moreover, the remaining activity at 0.6 µM came to 59% at PLpro from SARS-CoV-2 [4] (5 min, read-out: PLpro activity after preincubation, inhibitor 0.6 uM, preincubation 5 min); 41.8% at PLpro from SARS-CoV-2 [4] (10 min, read-out: PLpro activity after preincubation, inhibitor 0.6 uM, preincubation 10 min); 2.72% at PLpro from SARS-CoV-2 [4] (1 h, read-out: PLpro activity after preincubation, inhibitor 0.6 uM, preincubation 60 min); 27.5% at PLpro from SARS-CoV-2 [4] ([…], read-out: PLpro activity after preincubation, inhibitor 0.6 uM, preincubation 15 min). Moreover, the remaining activity at 0.7 µM at PLpro from SARS-CoV-2 [4] (5 min, read-out: PLpro activity after preincubation, inhibitor 0.7 uM, preincubation 5 min) was determined as 46.3%; at PLpro from SARS-CoV-2 [4] (10 min, read-out: PLpro activity after preincubation, inhibitor 0.7 uM, preincubation 10 min), 29.5%; at PLpro from SARS-CoV-2 [4] (0.5 h, read-out: PLpro activity after preincubation, inhibitor 0.7 uM, preincubation 30 min), 7.89%; at PLpro from SARS-CoV-2 [4] ([…], read-out: PLpro activity after preincubation, inhibitor 0.7 uM, preincubation 15 min) it was 17.8%. Further, the remaining activity at 0.3 µM on PLpro from SARS-CoV-2 [4] (0.5 h, read-out: PLpro activity after preincubation, inhibitor 0.3 uM, preincubation 30 min) came to 71%; on PLpro from SARS-CoV-2 [4] ([…], read-out: PLpro activity after preincubation, inhibitor 0.3 uM, preincubation 90 min), 15.6%. For the same molecule, on PLpro from SARS-CoV-2 [4], the “Time dep. (time-dependent inhibition)” value is “Time-dependent inhibition was observed and Yes”. In addition, the “mean (kobs plot, Supplementary Figure 6 II)” value at PLpro from SARS-CoV-2 [4] (inhibitor 0.20 uM) amounted to 0.0069; at PLpro from SARS-CoV-2 [4] (inhibitor 0.30 uM), 0.0173; on PLpro from SARS-CoV-2 [4] (inhibitor 0.5 uM) it was 0.0760; on PLpro from SARS-CoV-2 [4] (inhibitor 0.6 uM), 0.0965; at PLpro from SARS-CoV-2 [4] (inhibitor 0.7 uM), 0.1287.

On to `CC(C)NCC(O)COc1cccc2ccccc12` (centres unmarked) [propranolol, reference compound], for which the half-life (usually the time in which the quantity being followed falls by half) in [5] was 20 min; in data set [6], 6 min; in [7] it was 3 min; in [8] it was 3 min.
